In the supplement of paper PMC11451515:

Test system: SEM cells
Experiment: cell viability relative to DMSO control; higher = less cytotoxic
Details: 48 h
Outline: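 Leukemia cells (NOMO1 or SEM, 500 cells/well; P12-Ichikawa, 1000 cells/well) were seeded in 5 μl in 1536-well plates after at least four passages of adaptation to each medium. They received library compounds in DMSO by pin dosing, 11 threefold points from 47 μM to 0.79 nM. Luminescence with CellTiter-Glo One was read after 48 h at 37°C. Viability is stated per plate relative to DMSO wells, with cell-free wells as background.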

[1] = HPLM + 10% dialyzed FBS, 0.000781 µM
[2] = HPLM + 10% dialyzed FBS, 0.00234 µM
[3] = HPLM + 10% dialyzed FBS, 0.00702 µM
[4] = HPLM + 10% dialyzed FBS, 0.0211 µM
[5] = HPLM + 10% dialyzed FBS, 0.0632 µM
[6] = HPLM + 10% dialyzed FBS, 0.19 µM
[7] = HPLM + 10% dialyzed FBS, 0.569 µM
[8] = HPLM + 10% dialyzed FBS, 1.71 µM
[9] = HPLM + 10% dialyzed FBS, 5.12 µM
[10] = HPLM + 10% dialyzed FBS, 15.4 µM
[11] = HPLM + 10% dialyzed FBS, 46.1 µM
[12] = RPMI 5 mM glucose + 10% FBS, 0.000781 µM
[13] = RPMI 5 mM glucose + 10% FBS, 0.00234 µM
[14] = RPMI 5 mM glucose + 10% FBS, 0.00702 µM
[15] = RPMI 5 mM glucose + 10% FBS, 0.0211 µM
[16] = RPMI 5 mM glucose + 10% FBS, 0.0632 µM
[17] = RPMI 5 mM glucose + 10% FBS, 0.19 µM
[18] = RPMI 5 mM glucose + 10% FBS, 0.569 µM
[19] = RPMI 5 mM glucose + 10% FBS, 1.71 µM
[20] = RPMI 5 mM glucose + 10% FBS, 5.12 µM
[21] = RPMI 5 mM glucose + 10% FBS, 15.4 µM
[22] = RPMI 5 mM glucose + 10% FBS, 46.1 µM
[23] = RPMI 5 mM glucose + 10% dialyzed FBS, 0.000781 µM
[24] = RPMI 5 mM glucose + 10% dialyzed FBS, 0.00234 µM
[25] = RPMI 5 mM glucose + 10% dialyzed FBS, 0.00702 µM
[26] = RPMI 5 mM glucose + 10% dialyzed FBS, 0.0211 µM
[27] = RPMI 5 mM glucose + 10% dialyzed FBS, 0.0632 µM
[28] = RPMI 5 mM glucose + 10% dialyzed FBS, 0.19 µM
[29] = RPMI 5 mM glucose + 10% dialyzed FBS, 0.569 µM
[30] = RPMI 5 mM glucose + 10% dialyzed FBS, 1.71 µM
[31] = RPMI 5 mM glucose + 10% dialyzed FBS, 5.12 µM
[32] = RPMI 5 mM glucose + 10% dialyzed FBS, 15.4 µM
[33] = RPMI 5 mM glucose + 10% dialyzed FBS, 46.1 µM

| Structure (SMILES) | cell viability [1] [%] | cell viability [2] [%] | cell viability [3] [%] | cell viability [4] [%] | cell viability [5] [%] | cell viability [6] [%] | cell viability [7] [%] | cell viability [8] [%] | cell viability [9] [%] | cell viability [10] [%] | cell viability [11] [%] | cell viability [12] [%] | cell viability [13] [%] | cell viability [14] [%] | cell viability [15] [%] | cell viability [16] [%] | cell viability [17] [%] | cell viability [18] [%] | cell viability [19] [%] | cell viability [20] [%] | cell viability [21] [%] | cell viability [22] [%] | cell viability [23] [%] | cell viability [24] [%] | cell viability [25] [%] | cell viability [26] [%] | cell viability [27] [%] | cell viability [28] [%] | cell viability [29] [%] | cell viability [30] [%] | cell viability [31] [%] | cell viability [32] [%] | cell viability [33] [%] |
| --- | --- | --- | --- | --- | --- | --- | --- | --- | --- | --- | --- | --- | --- | --- | --- | --- | --- | --- | --- | --- | --- | --- | --- | --- | --- | --- | --- | --- | --- | --- | --- | --- | --- |
| COc1cc([C@@H]2c3cc4c(cc3[C@@H](O[C@@H]3O[C@@H]5CO[C@@H](c6cccs6)O[C@H]5[C@H](O)[C@H]3O)[C@H]3COC(=O)[C@H]23)OCO4)cc(OC)c1O | 94.9 | 85 | 89.8 | 95.1 | 83.1 | 85 | 90.8 | 16.4 | 77.9 | 15.3 | 4.57 | 96.7 | 120 | 110 | 103 | 101 | 84.7 | 78.7 | 14.4 | 80.1 | 12.6 | 5.23 | 86.7 | 88.9 | 79 | 85.1 | 79.6 | 68.6 | 66.8 | 9.66 | 63.4 | 11 | 3.6 |
| COc1cccc2c1C(=O)c1c(O)c3c(c(O)c1C2=O)C[C@@](O)(C(C)=O)C[C@@H]3O[C@H]1C[C@H](N)[C@H](O)[C@H](C)O1 | 74.5 | 83.9 | 85.3 | 90.3 | 55.3 | 25.3 | 7.3 | 7.11 | 6.71 | 7.18 | 5.34 | 82.3 | 98.4 | 91.9 | 77.3 | 40 | 21.8 | 7.4 | 7.93 | 7.89 | 7.75 | 6.05 | 88.6 | 89 | 96.2 | 84.3 | 59.2 | 29.4 | 9.48 | 8.29 | 8.52 | 8.22 | 6.01 |
| COc1ccnc(C[S+]([O-])c2nc3cc(OC(F)F)ccc3[nH]2)c1OC (stereo not given) | 110 | 111 | 124 | 123 | 122 | 123 | 133 | 119 | 134 | 128 | 143 | – | – | – | – | – | – | – | – | – | – | – | 111 | 95.9 | 126 | 131 | 125 | 118 | 127 | 144 | 126 | 130 | 137 |
| CN(C)CCN(Cc1ccc(Cl)cc1)c1ccccn1.Cl | 79.9 | 80.5 | 80.9 | 80.1 | 79.3 | 84.8 | 89.9 | 94.4 | 86.6 | 88 | 86.9 | 90.8 | 90.8 | 92.8 | 84.4 | 95.7 | 108 | 102 | 99.5 | 98.8 | 103 | 84.7 | 83.2 | 92.1 | 96.4 | 100 | 94 | 106 | 84 | 96.1 | 92.2 | 106 | 91.6 |
| COc1cc2ncnc(Nc3cccc(Br)c3)c2cc1OC | 85.1 | 84.7 | 94.3 | 94.7 | 102 | 98 | 114 | 118 | 114 | 103 | 91.5 | 113 | 87.9 | 102 | 131 | 122 | 119 | 113 | 136 | 121 | 110 | 89.9 | 75 | 75.2 | 86 | 97.4 | 110 | 103 | 120 | 110 | 104 | 96.3 | 78.6 |
| NC(=O)Nc1cc(-c2ccc(CN3CCOCC3)cc2)sc1C(N)=O | 103 | 113 | 106 | 108 | 103 | 32.9 | 33.3 | 22.2 | 12.9 | 11.5 | 8.44 | 118 | 120 | 133 | 116 | 111 | 20.2 | 19.9 | 17.1 | 10.8 | 6.3 | 6.6 | 104 | 110 | 109 | 108 | 91.2 | 22.9 | 21.6 | 14.5 | 7.42 | 7.32 | 5.7 |
| NCC(=O)Nc1ccc(-n2nc(C(F)(F)F)cc2-c2ccc3c(ccc4ccccc43)c2)cc1 | 109 | 136 | 117 | 121 | 120 | 112 | 129 | 121 | 113 | 99.1 | 95 | 87.7 | 100 | 112 | 102 | 116 | 114 | 101 | 107 | 98.3 | 84.8 | 72.6 | 119 | 138 | 119 | 124 | 120 | 114 | 128 | 132 | 100 | 51.4 | 45.1 |
| CNCC(O)C(O)C(O)C(O)CO.O=C(O)c1ccc(-c2cc3cccnc3c(-c3ccc4nonc4c3)n2)cc1 | 104 | 103 | 99.1 | 115 | 114 | 115 | 114 | 131 | 112 | 92.7 | 92 | 100 | 107 | 109 | 108 | 115 | 108 | 115 | 111 | 103 | 108 | 88.8 | 98 | 97.6 | 120 | 103 | 108 | 101 | 112 | 103 | 127 | 87.6 | 65.8 |
| Oc1cc(O)cc(/C=C/c2ccc(O)c(O)c2)c1 | 86.5 | 85.8 | 89.6 | 80.1 | 99.9 | 92.7 | 93.3 | 106 | 78.1 | 77.9 | 44.6 | 101 | 102 | 95 | 107 | 101 | 101 | 115 | 92.7 | 85.3 | 67.5 | 14.2 | 87.9 | 92.7 | 78.6 | 82.6 | 87.5 | 89.8 | 97.6 | 84.2 | 82.4 | 63.4 | 27.3 |
| O=C1N\2CCC3=C([NH]C4=C3C=CC=C4)C2=N/C5=CC=CC=C15 | 96 | 102 | 114 | 118 | 92.8 | 123 | 123 | 115 | 110 | 90.8 | 76.8 | 124 | 113 | 137 | 134 | 109 | 126 | 122 | 147 | 144 | 95 | 83.7 | 123 | 112 | 142 | 135 | 121 | 153 | 147 | 135 | 151 | 101 | 53.6 |
| CC1(C)CC(O)CC(C)(C)N1[O] | 87.2 | 80.3 | 89.8 | 86.9 | 81.6 | 89.1 | 44.7 | 94.3 | 89.5 | 92.1 | 84.2 | 102 | 114 | 96.3 | 105 | 98.6 | 96.6 | 27.7 | 101 | 113 | 103 | 99.5 | 98.6 | 94.6 | 97.8 | 97.5 | 94.3 | 95.4 | 32.7 | 106 | 108 | 102 | 85.4 |
| CN[S+](=O)([O-])CCc1ccc2[nH]cc(C3CCN(C)CC3)c2c1 | 78.4 | 74.3 | 87.2 | 98.7 | 97.7 | 108 | 91.8 | 99.7 | 109 | 111 | 110 | 84 | 67.4 | 90.8 | 101 | 94.1 | 103 | 92.5 | 105 | 110 | 99.7 | 88.8 | 87 | 75.4 | 99.6 | 86.6 | 93.3 | 99.4 | 90.9 | 97 | 84.2 | 92.9 | 85.5 |
| CC(C)NCC(O)COc1ccc(CCOCC2CC2)cc1 (stereo not given) | 94.9 | 94.5 | 101 | 107 | 106 | 116 | 99.1 | 90.4 | 107 | 91.4 | 95.1 | – | – | – | – | – | – | – | – | – | – | – | 115 | 104 | 110 | 113 | 109 | 113 | 125 | 114 | 97.6 | 105 | 108 |
| Cc1cn(CCN2CCN(c3ccccc3-c3cc(C#N)cc(C(=O)NCCCN4CCCC4)c3)CC2)c2ccccc12 | 103 | 103 | 94.9 | 97.1 | 99.9 | 101 | 112 | 102 | 73.2 | 23.8 | 18.3 | – | – | – | – | – | – | – | – | – | – | – | 104 | 116 | 116 | 101 | 117 | 119 | 128 | 113 | 102 | 42 | 27 |
| C[N+](C)([O-])CCNc1ccc(NCC[N+](C)(C)[O-])c2c1C(=O)c1c(O)ccc(O)c1C2=O | 101 | 85.4 | 83.8 | 84.5 | 88.8 | 77.1 | 69.7 | 46.4 | 7.02 | 20.1 | 10.1 | 101 | 95.8 | 105 | 89.9 | 73.5 | 56.6 | 55.8 | 28.8 | 7.28 | 12.8 | 9.18 | 88.9 | 86.1 | 93.8 | 87.7 | 79.5 | 68.2 | 62 | 33.5 | 8.62 | 18.8 | 12 |
| CCN(C)C(=O)Oc1cccc([C@H](C)N(C)C)c1 | 101 | 108 | 104 | 125 | 110 | 119 | 97.4 | 105 | 99.2 | 101 | 105 | 121 | 114 | 108 | 111 | 122 | 90.1 | 95.9 | 95.9 | 85.7 | 105 | 99.5 | 124 | 100 | 111 | 121 | 110 | 109 | 121 | 101 | 111 | 110 | 95.6 |
